# Reference: publication PMC12102759 (Protein Science : A Publication of the Protein Society, 2025)
# Like-named read-outs stand apart in the source and are kept apart here.
# Test system: PABPC1 PABC
# Format: binding, human
# Conditions: DMS-BM library, bait PABPC1 PABC, row aa = residue at this position; for DMS-derived PSSM value (averaged), position K7: K = wild type
# [1] = prey ATXN2, peptide TLNPNAKEFNPRSFSQ, L = wild type
# [2] = prey ATXN2, peptide TLNPNAKEFNPRSFSQ, F = wild type
# [3] = prey ATXN2, TLNPNAKEFNPRSF(averaged) over the two overlapping peptides, N = wild type
# [4] = prey ATXN2, peptide TLNPNAKEFNPRSFSQ, P = wild type
# [5] = prey ATXN2, peptide TLNPNAKEFNPRSFSQ, S = wild type
# [6] = prey ATXN2, TLNPNAKEFNPRSF(averaged) over the two overlapping peptides, P = wild type
# [7] = prey ATXN2, peptide KSTLNPNAKEFNPRSF, F = wild type
# [8] = prey ATXN2, TLNPNAKEFNPRSF(averaged) over the two overlapping peptides
# [9] = prey ATXN2, peptide KSTLNPNAKEFNPRSF, N = wild type
# [10] = prey ATXN2, peptide KSTLNPNAKEFNPRSF, S = wild type
substance,measurement,setting,value
TLNPNAKEFNPRSFSQ L2V (TVNPNAKEFNPRSFSQ),"DMS-derived PSSM value, position L2",[1],0
TLNPNAKEFNPRSFSQ F14R (TLNPNAKEFNPRSRSQ),"DMS-derived PSSM value, position F14",[2],0.0002828
TLNPNAKEFNPRSFSQ N5P (TLNPPAKEFNPRSFSQ),"DMS-derived PSSM value, position N5","prey ATXN2, peptide TLNPNAKEFNPRSFSQ, N = wild type",8.238e-5
TLNPNAKEFNPRSF(averaged) N3P (TLPPNAKEFNPRSF),"DMS-derived PSSM value (averaged), position N3",[3],0
TLNPNAKEFNPRSF(averaged) L2G (TGNPNAKEFNPRSF),"DMS-derived PSSM value (averaged), position L2","prey ATXN2, TLNPNAKEFNPRSF(averaged) over the two overlapping peptides, L = wild type",0
TLNPNAKEFNPRSFSQ P4A (TLNANAKEFNPRSFSQ),"DMS-derived PSSM value, position P4",[4],0.02051
TLNPNAKEFNPRSFSQ S13G (TLNPNAKEFNPRGFSQ),"DMS-derived PSSM value, position S13",[5],0.1675
TLNPNAKEFNPRSFSQ S15V (TLNPNAKEFNPRSFVQ),"DMS-derived PSSM value, position S15",[5],0.009732
TLNPNAKEFNPRSF(averaged) F9G (TLNPNAKEGNPRSF),"DMS-derived PSSM value (averaged), position F9","prey ATXN2, TLNPNAKEFNPRSF(averaged) over the two overlapping peptides, F = wild type",0
TLNPNAKEFNPRSFSQ L2M (TMNPNAKEFNPRSFSQ),"DMS-derived PSSM value, position L2",[1],0.1261
TLNPNAKEFNPRSF(averaged) P4E (TLNENAKEFNPRSF),"DMS-derived PSSM value (averaged), position P4",[6],0.0008442
TLNPNAKEFNPRSFSQ P11I (TLNPNAKEFNIRSFSQ),"DMS-derived PSSM value, position P11",[4],0.0006115
TLNPNAKEFNPRSF(averaged) N3G (TLGPNAKEFNPRSF),"DMS-derived PSSM value (averaged), position N3",[3],0
TLNPNAKEFNPRSFSQ S13D (TLNPNAKEFNPRDFSQ),"DMS-derived PSSM value, position S13",[5],0.05929
TLNPNAKEFNPRSF(averaged) N5D (TLNPDAKEFNPRSF),"DMS-derived PSSM value (averaged), position N5",[3],0.03885
TLNPNAKEFNPRSFSQ A6Y (TLNPNYKEFNPRSFSQ),"DMS-derived PSSM value, position A6","prey ATXN2, peptide TLNPNAKEFNPRSFSQ, A = wild type",0
KSTLNPNAKEFNPRSF F16K (KSTLNPNAKEFNPRSK),"DMS-derived PSSM value, position F16",[7],0.01965
KSTLNPNAKEFNPRSF F16G (KSTLNPNAKEFNPRSG),"DMS-derived PSSM value, position F16",[7],0
TLNPNAKEFNPRSF(averaged) N5R (TLNPRAKEFNPRSF),"DMS-derived PSSM value (averaged), position N5",[3],0.004628
TLNPNAKEFNPRSF(averaged) S13K (TLNPNAKEFNPRKF),"DMS-derived PSSM value (averaged), position S13","prey ATXN2, TLNPNAKEFNPRSF(averaged) over the two overlapping peptides, S = wild type",0.003966
TLNPNAKEFNPRSF(averaged) P4G (TLNGNAKEFNPRSF),"DMS-derived PSSM value (averaged), position P4",[6],0.00705
TLNPNAKEFNPRSF(averaged) K7H (TLNPNAHEFNPRSF),"DMS-derived PSSM value (averaged), position K7",[8],0.03669
TLNPNAKEFNPRSFSQ S13Y (TLNPNAKEFNPRYFSQ),"DMS-derived PSSM value, position S13",[5],0.04643
KSTLNPNAKEFNPRSF N5P (KSTLPPNAKEFNPRSF),"DMS-derived PSSM value, position N5",[9],0
TLNPNAKEFNPRSF(averaged) P11I (TLNPNAKEFNIRSF),"DMS-derived PSSM value (averaged), position P11",[6],0.006686
TLNPNAKEFNPRSF(averaged) K7D (TLNPNADEFNPRSF),"DMS-derived PSSM value (averaged), position K7",[8],0.01005
TLNPNAKEFNPRSF(averaged) A6P (TLNPNPKEFNPRSF),"DMS-derived PSSM value (averaged), position A6","prey ATXN2, TLNPNAKEFNPRSF(averaged) over the two overlapping peptides, A = wild type",0
TLNPNAKEFNPRSFSQ P11V (TLNPNAKEFNVRSFSQ),"DMS-derived PSSM value, position P11",[4],0.1131
TLNPNAKEFNPRSF(averaged) T1W (WLNPNAKEFNPRSF),"DMS-derived PSSM value (averaged), position T1","prey ATXN2, TLNPNAKEFNPRSF(averaged) over the two overlapping peptides, T = wild type",0.008583
TLNPNAKEFNPRSFSQ F9H (TLNPNAKEHNPRSFSQ),"DMS-derived PSSM value, position F9",[2],0
KSTLNPNAKEFNPRSF A8D (KSTLNPNDKEFNPRSF),"DMS-derived PSSM value, position A8","prey ATXN2, peptide KSTLNPNAKEFNPRSF, A = wild type",0
KSTLNPNAKEFNPRSF S15W (KSTLNPNAKEFNPRWF),"DMS-derived PSSM value, position S15",[10],0.009844
KSTLNPNAKEFNPRSF N12F (KSTLNPNAKEFFPRSF),"DMS-derived PSSM value, position N12",[9],0.05323
TLNPNAKEFNPRSFSQ F14K (TLNPNAKEFNPRSKSQ),"DMS-derived PSSM value, position F14",[2],0.003921
KSTLNPNAKEFNPRSF N7I (KSTLNPIAKEFNPRSF),"DMS-derived PSSM value, position N7",[9],0.5578
KSTLNPNAKEFNPRSF S15F (KSTLNPNAKEFNPRFF),"DMS-derived PSSM value, position S15",[10],0.0234
